Measurements taken from ChEMBL document CHEMBL1201862, “PubChem BioAssay data set” (2004).
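96-well plates; 48 h exposure; 5 concentrations. Endpoints by linear interpolation between flanking doses. Not reached: highest tested concentration assigned. GI50 = concentration required for 50% inhibition of growth.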 The source made the active and inactive calls. Rule as the data show it: active = GI50 up to about 1.1 µM and inactive = higher.

Legend:
Test in all cases: growth of human tumour cells (NCI), 48 h
NCI/ADR-RES = system: NCI/ADR-RES
OVCAR-5 = system: OVCAR-5
SK-MEL-28 = system: SK-MEL-28
RPMI-8226 = system: RPMI-8226
DU-145 = system: DU-145
BT-549 = system: BT-549
SK-MEL-2 = system: SK-MEL-2
COLO 205 = system: COLO 205
SNB-75 = system: SNB-75
HT-29 = system: HT-29
A498 = system: A498
SF-295 = system: SF-295
SNB-19 = system: SNB-19
HOP-92 = system: HOP-92
SK-MEL-5 = system: SK-MEL-5
Hs-578T = system: Hs-578T
HCC 2998 = system: HCC 2998
PC-3 = system: PC-3
NCI-H460 = system: NCI-H460
MDA-N = system: MDA-N
TK-10 = system: TK-10
HCT-116 = system: HCT-116
SN12C = system: SN12C
UO-31 = system: UO-31
IGROV-1 = system: IGROV-1
NCI-H23 = system: NCI-H23
ACHN = system: ACHN
U-251 = system: U-251
A549 = system: A549
HCT-15 = system: HCT-15
SK-OV-3 = system: SK-OV-3
MDA-MB-231 = system: MDA-MB-231
EKVX = system: EKVX
RXF 393 = system: RXF 393
KM12 = system: KM12
SW-620 = system: SW-620
HOP-62 = system: HOP-62
NCI-H522 = system: NCI-H522
UACC-62 = system: UACC-62
T47D = system: T47D
MCF7 = system: MCF7
OVCAR-4 = system: OVCAR-4
OVCAR-3 = system: OVCAR-3
UACC-257 = system: UACC-257
M14 = system: M14
OVCAR-8 = system: OVCAR-8
SF-539 = system: SF-539
LOX IMVI = system: LOX IMVI
NCI-H226 = system: NCI-H226
786-0 = system: 786-0
CAKI-1 = system: CAKI-1
MDA-MB-435 = system: MDA-MB-435
SF-268 = system: SF-268
Malme-3M = system: Malme-3M
MOLT-4 = system: MOLT-4
SR = system: SR
CCRF-CEM = system: CCRF-CEM
HL-60 = system: HL-60
K562 = system: K562

With `O=c1c2ccccc2c2ccccc2c(=O)n1-c1cc2c3ccccc3ccc2c2ccccc12` the GI50 (NCI/ADR-RES) was > 100 µM (inactive), the GI50 (OVCAR-5) was > 100 µM (inactive) and the GI50 (SK-MEL-28) was > 100 µM (inactive). For the same compound, the GI50 (RPMI-8226) was 60.3 µM (inactive), the GI50 (DU-145) was > 100 µM (inactive) and the GI50 (BT-549) was > 100 µM (inactive). For the same compound, the GI50 (SK-MEL-2) was > 100 µM (inactive), the GI50 (COLO 205) was > 100 µM (inactive) and the GI50 (SNB-75) was > 100 µM (inactive). The GI50 (HT-29) was > 100 µM (inactive), the GI50 (A498) was > 100 µM (inactive) and the GI50 (SF-295) was > 100 µM (inactive). For the same compound, the GI50 (SNB-19) was > 100 µM (inactive), the GI50 (HOP-92) was > 100 µM (inactive) and the GI50 (SK-MEL-5) was > 100 µM (inactive). The GI50 (Hs-578T) was > 100 µM (inactive), the GI50 (HCC 2998) was 22.3 µM (inactive) and the GI50 (PC-3) was > 100 µM (inactive). For the same compound, the GI50 (NCI-H460) was > 100 µM (inactive), the GI50 (MDA-N) was > 100 µM (inactive) and the GI50 (TK-10) was > 100 µM (inactive). For the same compound, the GI50 (HCT-116) was > 100 µM (inactive), the GI50 (SN12C) was 84.5 µM (inactive) and the GI50 (UO-31) was > 100 µM (inactive). For the same compound, the GI50 (IGROV-1) was > 100 µM (inactive), the GI50 (NCI-H23) was > 100 µM (inactive) and the GI50 (ACHN) was > 100 µM (inactive). The GI50 (U-251) was > 100 µM (inactive), the GI50 (A549) was > 100 µM (inactive) and the GI50 (HCT-15) was > 100 µM. The GI50 (SK-OV-3) was > 100 µM (inactive), the GI50 (MDA-MB-231) was > 100 µM (inactive) and the GI50 (EKVX) was > 100 µM (inactive). For the same compound, the GI50 (RXF 393) was > 100 µM (inactive), the GI50 (KM12) was > 100 µM (inactive) and the GI50 (SW-620) was > 100 µM (inactive). The GI50 (HOP-62) was > 100 µM (inactive), the GI50 (NCI-H522) was > 100 µM (inactive) and the GI50 (UACC-62) was > 100 µM (inactive). The GI50 (T47D) was > 100 µM (inactive), the GI50 (MCF7) was 91.8 µM (inactive) and the GI50 (OVCAR-4) was > 100 µM (inactive). For the same compound, the GI50 (OVCAR-3) was > 100 µM (inactive), the GI50 (UACC-257) was > 100 µM (inactive) and the GI50 (M14) was > 100 µM (inactive). For the same compound, the GI50 (OVCAR-8) was > 100 µM (inactive), the GI50 (SF-539) was > 100 µM (inactive) and the GI50 (LOX IMVI) was > 100 µM (inactive). The GI50 (NCI-H226) was > 100 µM (inactive), the GI50 (786-0) was > 100 µM (inactive) and the GI50 (CAKI-1) was > 100 µM (inactive). The GI50 (MDA-MB-435) was > 100 µM (inactive), the GI50 (SF-268) was > 100 µM (inactive) and the GI50 (Malme-3M) was > 100 µM (inactive).
For `CC(=O)Nc1ccc2c(C)c3c4ccccc4n(C)c3nc2n1`, the GI50 (NCI/ADR-RES) was 22.3 µM (inactive), the GI50 (OVCAR-5) was 18.6 µM (inactive) and the GI50 (DU-145) was 21 µM (inactive). For the same compound, the GI50 (MOLT-4) was 5.83 µM (inactive), the GI50 (BT-549) was 31.3 µM (inactive) and the GI50 (SK-MEL-2) was 20.6 µM (inactive). For the same compound, the GI50 (SR) was 10.6 µM (inactive), the GI50 (COLO 205) was 12.7 µM (inactive) and the GI50 (SNB-75) was 14.4 µM (inactive). For the same compound, the GI50 (CCRF-CEM) was 18.7 µM (inactive), the GI50 (HT-29) was 14.8 µM (inactive) and the GI50 (A498) was 18.1 µM (inactive). For the same compound, the GI50 (SF-295) was 19.9 µM (inactive), the GI50 (SNB-19) was 39.1 µM (inactive) and the GI50 (SK-MEL-5) was 9.29 µM (inactive). For the same compound, the GI50 (Hs-578T) was 16.3 µM (inactive), the GI50 (HCC 2998) was 16.4 µM (inactive) and the GI50 (PC-3) was 18.9 µM (inactive). The GI50 (NCI-H460) was 2.92 µM (inactive), the GI50 (MDA-N) was 17.1 µM (inactive) and the GI50 (TK-10) was 32.9 µM (inactive). The GI50 (HCT-116) was 7.1 µM (inactive), the GI50 (SN12C) was 16.4 µM (inactive) and the GI50 (UO-31) was 11.4 µM (inactive). For the same compound, the GI50 (IGROV-1) was 28.1 µM (inactive), the GI50 (NCI-H23) was 19.3 µM (inactive) and the GI50 (ACHN) was 8.55 µM (inactive). For the same compound, the GI50 (A549) was 16 µM (inactive), the GI50 (HCT-15) was 11.4 µM and the GI50 (MDA-MB-231) was 18.7 µM (inactive). For the same compound, the GI50 (EKVX) was 29 µM (inactive), the GI50 (RXF 393) was 16.1 µM (inactive) and the GI50 (KM12) was 11.9 µM (inactive). For the same compound, the GI50 (SW-620) was 13.2 µM (inactive), the GI50 (HOP-62) was 14.3 µM (inactive) and the GI50 (HL-60) was 12.9 µM (inactive). For the same compound, the GI50 (NCI-H522) was 16.1 µM (inactive), the GI50 (UACC-62) was 20.1 µM (inactive) and the GI50 (T47D) was 18.4 µM (inactive). The GI50 (MCF7) was 20.8 µM (inactive), the GI50 (OVCAR-3) was 26.1 µM (inactive) and the GI50 (UACC-257) was 26.9 µM (inactive). For the same compound, the GI50 (M14) was 20.7 µM (inactive), the GI50 (OVCAR-8) was 17.9 µM (inactive) and the GI50 (SF-539) was 29.3 µM (inactive). The GI50 (LOX IMVI) was 12.6 µM (inactive), the GI50 (NCI-H226) was 29.6 µM (inactive) and the GI50 (786-0) was 8.17 µM (inactive). For the same compound, the GI50 (CAKI-1) was 12.2 µM (inactive), the GI50 (MDA-MB-435) was 18.7 µM (inactive) and the GI50 (SF-268) was 17.8 µM (inactive).
`O=S(=O)(c1cc(Cl)ccc1Cl)N1CCN(S(=O)(=O)c2cc(Cl)ccc2Cl)CC1` was tested, and the GI50 (NCI/ADR-RES) was > 100 µM (inactive), the GI50 (OVCAR-5) was 16.3 µM (inactive) and the GI50 (SK-MEL-28) was > 100 µM (inactive). The GI50 (DU-145) was 16.1 µM (inactive), the GI50 (MOLT-4) was > 100 µM (inactive) and the GI50 (BT-549) was > 100 µM (inactive). For the same compound, the GI50 (SK-MEL-2) was 0.403 µM (active), the GI50 (SNB-75) was > 100 µM (inactive) and the GI50 (HT-29) was > 100 µM (inactive). The GI50 (A498) was > 100 µM (inactive), the GI50 (SF-295) was > 100 µM (inactive) and the GI50 (SNB-19) was > 100 µM (inactive). The GI50 (HOP-92) was > 100 µM (inactive), the GI50 (SK-MEL-5) was > 100 µM (inactive) and the GI50 (Hs-578T) was 19.8 µM (inactive). The GI50 (HCC 2998) was > 100 µM (inactive), the GI50 (K562) was > 100 µM (inactive) and the GI50 (PC-3) was > 100 µM (inactive). The GI50 (NCI-H460) was > 100 µM (inactive), the GI50 (MDA-N) was > 100 µM (inactive) and the GI50 (TK-10) was > 100 µM (inactive). The GI50 (HCT-116) was > 100 µM (inactive), the GI50 (SN12C) was > 100 µM (inactive) and the GI50 (UO-31) was > 100 µM (inactive). The GI50 (IGROV-1) was > 100 µM (inactive), the GI50 (NCI-H23) was 4.86 µM (inactive) and the GI50 (ACHN) was > 100 µM (inactive). For the same compound, the GI50 (U-251) was > 100 µM (inactive), the GI50 (A549) was > 100 µM (inactive) and the GI50 (HCT-15) was > 100 µM. For the same compound, the GI50 (MDA-MB-231) was > 100 µM (inactive), the GI50 (RXF 393) was > 100 µM (inactive) and the GI50 (KM12) was > 100 µM (inactive). The GI50 (SW-620) was > 100 µM (inactive), the GI50 (HOP-62) was > 100 µM (inactive) and the GI50 (NCI-H522) was > 100 µM (inactive). For the same compound, the GI50 (UACC-62) was 0.489 µM (active), the GI50 (T47D) was > 100 µM (inactive) and the GI50 (MCF7) was > 100 µM (inactive). For the same compound, the GI50 (OVCAR-3) was > 100 µM (inactive), the GI50 (UACC-257) was > 100 µM (inactive) and the GI50 (M14) was > 100 µM (inactive). The GI50 (OVCAR-8) was > 100 µM (inactive), the GI50 (SF-539) was > 100 µM (inactive) and the GI50 (NCI-H226) was > 100 µM (inactive). For the same compound, the GI50 (786-0) was > 100 µM (inactive), the GI50 (CAKI-1) was > 100 µM (inactive) and the GI50 (MDA-MB-435) was > 100 µM (inactive). The GI50 (SF-268) was > 100 µM (inactive) and the GI50 (Malme-3M) was > 100 µM (inactive).
